# In patent publication US10308959B2, “Methods, systems, and compositions relating to MiRNA-146a” (Henry Ford Health System, priority 2013, dated 2019):
# Tested on: diabetic mice (db/db mice)
# Assay: Diabetic peripheral neuropathy in type II diabetic mice (db/db)
# Type: in vivo, mouse
# From the text: DRG neurons play an important role in sensory conduction. Diabetic peripheral neuropathy is characterized by the loss and/or degeneration of neurons and the slowing of nerve conduction velocities. Using a mouse model of type II diabetes which develops severe peripheral neuropathy, we measured miR-146a expression in DRG neurons. […] FIG. 5H is quantitative data of caspase 3 positive cells. FIGS. 5I and J are neurological function measured by motor nerve conduction velocity (MCV, FIG. 5I) and sensory nerve conduction velocity (“SCV”, FIG. 5J). Red, blue, and black lines represent non-diabetic mice, diabetic mice treated with saline, and diabetic mice treated with sildenafil, respectively. *P<0.01 versus the nondiabetic group. #P<0.05 versus the diabetic group treated with saline. n=10/group. […] Elevation of miR-146a in DRG neurons by sildenafil rescued diabetes-induced DRG neuron death and improved neurological outcomes (FIG. 5).
# [1] = diabetic mice treated with sildenafil
smiles,measurement,setting,value
CCCc1nn(C)c2c(=O)[nH]c(-c3cc(S(=O)(=O)N4CCN(C)CC4)ccc3OCC)nc12 [sildenafil],diabetes-induced DRG neuron death (caspase 3 positive cells),[1],rescued
same,miR-146a in DRG neurons,[1],Elevation
same,"neurological outcomes (MCV, SCV)",diabetic mice treated with sildenafil vs saline,improved
